Experimental data taken from patent US20100267561A1, “HERBICIDAL PYRIDAZINONE DERIVATIVES” (priority 2007, published 2010).

Legend:
Assay in all cases: Test B pre-/postemergence plant response
Format in all cases: in vivo
[1] = system: blackgrass (Alopecurus myosuroides); details: for Blackgrass plant response rating: 8 g ai/ha
Method in brief: (§1)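 Preemergence and postemergence (plants 2-18 cm, 1- to 4-leaf stage) applications used test chemicals in a non-phytotoxic solvent with surfactant. Plants were held in a greenhouse 13 to 15 days, then rated visually against controls on a 0-100 scale (0 no effect, 100 complete control).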

corn (Zea mays) = system: corn (Zea mays)
Method in brief: as §1

kochia (Kochia scoparia) = system: kochia (Kochia scoparia)
Method in brief: as §1

[2] = system: Italian ryegrass (Lolium multiflorum)
Method in brief: as §1

[3] = system: giant foxtail (Setaria faberii)
Method in brief: as §1

[4] = system: morningglory (Ipomoea coccinea)
Method in brief: as §1

[5] = system: lambsquarters (Chenopodium album)
Method in brief: as §1

[6] = system: bermudagrass (Cynodon dactylon); details: for Bermudagrass plant response rating: 8 g ai/ha
Method in brief: as §1

[7] = system: eastern black (E.B.) nightshade (Solanum ptycanthum); details: Preemergence
Method in brief: as §1

[8] = system: common ragweed (Ambrosia elation)
Method in brief: as §1

[9] = system: johnsongrass (Sorghum halepense)
Method in brief: as §1

[10] = system: yellow nutsedge (Cyperus esculentus)
Method in brief: as §1

[11] = system: surinam grass (Brachiaria decumbens)
Method in brief: as §1

wild oat (Avena fatua) = system: wild oat (Avena fatua)
Method in brief: as §1

[12] = Postemergence, 16 g ai/ha, scale 0 to 100
[13] = Postemergence, 31 g ai/ha, scale 0 to 100
[14] = Postemergence, 62 g ai/ha, scale 0 to 100, 0 no effect, 100 complete control
[15] = Preemergence, 16 g ai/ha, scale 0 to 100 (0 no effect, 100 complete control)
[16] = Preemergence, 31 g ai/ha, 0 to 100 scale, 0 no effect, 100 complete control
[17] = Preemergence, 62 g ai/ha, scale 0 to 100
[18] = 8 g ai/ha, postemergence, 0-100 scale
[19] = Preemergence, 8 g ai/ha, scale 0 to 100
[20] = Preemergence, 16 g ai/ha, scale 0 to 100
[21] = Preemergence, 31 g ai/ha, scale 0 to 100 (0 no effect, 100 complete control)

Cc1cc(-c2ccc(Cl)cc2)nn1-c1c(OC(=O)Oc2ccccc2)cnn(C)c1=O [Compound 54]
95: Plant response rating, Ryegrass, Italian [2, 12] | Plant response rating, Ryegrass, Italian [2, 13] | Plant response rating, Surinam Grass [11, 12] | Plant response rating, Oat, Wild (wild oat (Avena fatua); [17])
40: Johnsongrass plant response rating [9, 20] | Oat, Wild plant response rating (wild oat (Avena fatua); [19])
85: Plant response rating, Corn (corn (Zea mays); [17]) | Foxtail, Giant plant response rating [3, 18] | Plant response rating, Surinam Grass ([11]; Preemergence, 62 g ai/ha, 0 to 100 scale, 0 no effect, 100 complete control) | Oat, Wild plant response rating (wild oat (Avena fatua); [18])
0: Corn plant response rating (corn (Zea mays); [18]) | Plant response rating, Corn (corn (Zea mays); [12]) | Corn plant response rating (corn (Zea mays); [19]) | Corn plant response rating (corn (Zea mays); [20]) | Kochia plant response rating (kochia (Kochia scoparia); [18]) | Plant response rating, Kochia (kochia (Kochia scoparia); [12]) | Plant response rating, Kochia (kochia (Kochia scoparia); [13]) | Plant response rating, Kochia (kochia (Kochia scoparia); [14]) | Plant response rating, Kochia (kochia (Kochia scoparia); [16]) | Foxtail, Giant plant response rating [3, 19] | Foxtail, Giant plant response rating [3, 20] | Morningglory plant response rating [4, 18] | Plant response rating, Morningglory [4, 12] | Plant response rating, Morningglory [4, 13] | Plant response rating, Morningglory [4, 14] | Plant response rating, Morningglory [4, 21] | Plant response rating, Morningglory [4, 17] | Morningglory plant response rating [4, 19] | Morningglory plant response rating [4, 20] | Lambsquarters plant response rating [5, 18] | Plant response rating, Lambsquarters [5, 12] | Plant response rating, Lambsquarters [5, 13] | Plant response rating, Lambsquarters [5, 14] | Plant response rating, Lambsquarters [5, 16] | Plant response rating, Lambsquarters [5, 17] | Lambsquarters plant response rating [5, 19] | Lambsquarters plant response rating [5, 20] | Bermudagrass plant response rating ([6]; Preemergence, scale 0 to 100 (0 no effect, 100 complete control)) | Plant response rating, Bermudagrass [6, 15] | Plant response rating, Bermudagrass [6, 16] | Plant response rating, Bermudagrass [6, 17] | Plant response rating, Nightshade, E. B. ([7]; 31 g ai/ha, scale 0 to 100 (0 no effect, 100 complete control)) | Plant response rating, Nightshade, E. B. ([7]; 62 g ai/ha, scale 0 to 100) | Nightshade, E. B. plant response rating ([7]; 8 g ai/ha, scale 0 to 100) | Nightshade, E. B. plant response rating ([7]; 16 g ai/ha, scale 0 to 100) | Ragweed plant response rating [8, 18] | Plant response rating, Ragweed [8, 12] | Plant response rating, Ragweed [8, 13] | Plant response rating, Ragweed [8, 14] | Plant response rating, Ragweed [8, 21] | Plant response rating, Ragweed [8, 17] | Ragweed plant response rating [8, 19] | Ragweed plant response rating [8, 20] | Johnsongrass plant response rating [9, 18] | Johnsongrass plant response rating [9, 19] | Nutsedge, Yellow plant response rating [10, 18] | Plant response rating, Nutsedge, Yellow [10, 12] | Plant response rating, Nutsedge, Yellow [10, 13] | Plant response rating, Nutsedge, Yellow [10, 14] | Plant response rating, Nutsedge, Yellow [10, 21] | Plant response rating, Nutsedge, Yellow [10, 17] | Nutsedge, Yellow plant response rating [10, 19] | Nutsedge, Yellow plant response rating [10, 20] | Surinam Grass plant response rating [11, 19] | Surinam Grass plant response rating [11, 20]
60: Blackgrass plant response rating ([1]; Preemergence, scale 0 to 100)
20: Ryegrass, Italian plant response rating [2, 19] | Plant response rating, Foxtail, Giant [3, 16]
75: Ryegrass, Italian plant response rating [2, 18] | Plant response rating, Johnsongrass [9, 16] | Plant response rating, Oat, Wild (wild oat (Avena fatua); [21])
50: Surinam Grass plant response rating [11, 18]
65: Plant response rating, Corn (corn (Zea mays); [16])
55: Plant response rating, Foxtail, Giant [3, 17] | Plant response rating, Surinam Grass [11, 21]
45: Blackgrass plant response rating ([1]; postemergence, 0-100 scale) | Plant response rating, Blackgrass [1, 12]
100: Plant response rating, Corn (corn (Zea mays); [14]) | Plant response rating, Ryegrass, Italian [2, 14] | Plant response rating, Ryegrass, Italian [2, 17] | Plant response rating, Foxtail, Giant [3, 13] | Plant response rating, Foxtail, Giant [3, 14] | Bermudagrass plant response rating ([6]; postemergence, 0-100 scale) | Plant response rating, Bermudagrass [6, 12] | Plant response rating, Bermudagrass [6, 13] | Plant response rating, Bermudagrass [6, 14] | Plant response rating, Johnsongrass [9, 14] | Plant response rating, Surinam Grass [11, 14]
25: Plant response rating, Corn (corn (Zea mays); [13]) | Plant response rating, Johnsongrass [9, 12]
98: Plant response rating, Foxtail, Giant [3, 12] | Plant response rating, Surinam Grass [11, 13] | Plant response rating, Oat, Wild (wild oat (Avena fatua); [13]) | Plant response rating, Oat, Wild (wild oat (Avena fatua); [14])
70: Plant response rating, Blackgrass [1, 13] | Plant response rating, Blackgrass [1, 14] | Oat, Wild plant response rating (wild oat (Avena fatua); [20])
80: Plant response rating, Johnsongrass [9, 13]
90: Plant response rating, Blackgrass [1, 15] | Plant response rating, Blackgrass [1, 16] | Plant response rating, Blackgrass [1, 17] | Plant response rating, Ryegrass, Italian [2, 21] | Ryegrass, Italian plant response rating [2, 20] | Plant response rating, Johnsongrass [9, 17] | Plant response rating, Oat, Wild (wild oat (Avena fatua); [12])
